This is an account of results in the supplement of paper PMC10307832.

Common to all, as to assay: relative viability (nuclei count vs DMSO), 5 days (fraction); higher = more cells survive
Compound in assay [1]: C1COCCN1C2=NC(=NC3=C2OC4=C3C=CC=N4)C5=CC(=CC=C5)NC(=O)C6=CN=C(C=C6)N + O=C(c1cc(Cc2n[nH]c(=O)c3ccccc23)ccc1F)N1CCN(C(=O)C2CC2)CC1 [Olaparib] (partner 8 µM)
In a few lines:
(§1)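 Relative viability is defined as nuclei in treated wells over nuclei in vehicle wells. Duplicate plates were run and medians reported. Lung cancer cell lines in 1536-well plates were dosed by pin tool one day after seeding, with one drug or with a fixed anchor-drug dose plus five library-drug doses (not always all listed) in √10 steps, and nuclei were counted after 5 days.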

Compound in assay [2]: CN1CCC(CNc2ccc3ncc(-c4cccc(OC(F)(F)F)c4)n3n2)CC1 [SGI-1776] + CC(=O)c1c(C)c2cnc(Nc3ccc(N4CCNCC4)cn3)nc2n(C2CCCC2)c1=O [Palbociclib] (partner 0.5 µM)
A digest of the protocol:
as §1

Compound in assay [3]: Nc1ccccc1NC(=O)c1ccc(CNC(=O)OCc2cccnc2)cc1 [Entinostat] + Nc1ncn([C@H]2C[C@H](O)[C@@H](CO)O2)c(=O)n1 [Decitabine] (partner 2 µM)
A digest of the protocol: as §1

Compound in assay [4]: CN1CCC(CNc2ccc3ncc(-c4cccc(OC(F)(F)F)c4)n3n2)CC1 [SGI-1776] + COc1cc2c(Oc3ccc(NC(=O)C4(C(=O)Nc5ccc(F)cc5)CC4)cc3F)ccnc2cc1OCCCN1CCOCC1 [Foretinib] (partner 0.25 µM)
In a few lines:
as §1

Turning to SK-LU-1, the relative viability in assay [1] (first compound 0.02 µM) was 0.429; in assay [1] (first compound 0.06325 µM) it was 0.432; in assay [1] (first compound 0.2 µM), 0.607; in assay [1] (first compound 0.6325 µM) it was 0.478; in assay [1] (first compound 2 µM), 0.355; in assay [2] (first compound 0.08 µM), 0.425. For the same cell line, the relative viability in assay [2] (first compound 0.8 µM) was found to be 0.306; in assay [2] (first compound 2.53 µM), 0.415; in assay [2] (first compound 8 µM) it was 0.371; in assay [3] (first compound 0.02 µM) it was 0.643; in assay [3] (first compound 0.06325 µM) it was 0.805; in assay [3] (first compound 0.2 µM) it was 0.638. In addition, the relative viability in assay [3] (first compound 0.6325 µM) was found to be 0.473; in assay [3] (first compound 2 µM) it was 0.418; in assay [4] (first compound 0.08 µM), 0.843; in assay [4] (first compound 0.8 µM) it was 0.773; in assay [4] (first compound 2.53 µM) it was 0.765; in assay [4] (first compound 8 µM), 0.426.
Regarding SK-MES-1, the relative viability in assay [1] (first compound 0.02 µM) came out at 0.71; in assay [1] (first compound 0.06325 µM) it was 0.816; in assay [1] (first compound 0.2 µM) it was 0.611; in assay [1] (first compound 0.6325 µM), 0.51; in assay [1] (first compound 2 µM), 0.427; in assay [2] (first compound 0.08 µM), 0.379. Further, the relative viability in assay [2] (first compound 0.8 µM) turned out to be 0.315; in assay [2] (first compound 2.53 µM), 0.327; in assay [2] (first compound 8 µM), 0.241; in assay [3] (first compound 0.02 µM) it was 0.362; in assay [3] (first compound 0.06325 µM), 0.36; in assay [3] (first compound 0.2 µM) it was 0.434. The relative viability stood at 0.303 in assay [3] (first compound 0.6325 µM); 0.331 in assay [3] (first compound 2 µM); 1.06 in assay [4] (first compound 0.08 µM); 0.762 in assay [4] (first compound 0.8 µM); 0.857 in assay [4] (first compound 2.53 µM); 0.648 in assay [4] (first compound 8 µM).
SW 900: the relative viability came out at 0.981 in assay [1] (first compound 0.02 µM); 0.945 in assay [1] (first compound 0.06325 µM); 0.743 in assay [1] (first compound 0.2 µM); 0.804 in assay [1] (first compound 0.6325 µM); 0.655 in assay [1] (first compound 2 µM); 0.599 in assay [2] (first compound 0.08 µM). Further, the relative viability in assay [2] (first compound 0.8 µM) is 0.633; in assay [2] (first compound 2.53 µM) it was 0.571; in assay [2] (first compound 8 µM), 0.395; in assay [3] (first compound 0.02 µM), 0.429; in assay [3] (first compound 0.06325 µM), 0.419; in assay [3] (first compound 0.2 µM) it was 0.391. Besides, the relative viability in assay [3] (first compound 0.6325 µM) amounted to 0.302; in assay [3] (first compound 2 µM), 0.286; in assay [4] (first compound 0.08 µM), 1.05; in assay [4] (first compound 0.8 µM), 1.12; in assay [4] (first compound 2.53 µM), 0.9; in assay [4] (first compound 8 µM) it was 0.817.
Turning to SW 1573, the relative viability in assay [1] (first compound 0.02 µM) was found to be 0.488; in assay [1] (first compound 0.06325 µM) it was 0.508; in assay [1] (first compound 0.2 µM), 0.439; in assay [1] (first compound 0.6325 µM), 0.459; in assay [1] (first compound 2 µM), 0.36; in assay [2] (first compound 0.08 µM), 0.441. Also, the relative viability in assay [2] (first compound 0.8 µM) came to 0.351; in assay [2] (first compound 2.53 µM), 0.363; in assay [2] (first compound 8 µM), 0.245; in assay [3] (first compound 0.02 µM), 0.526; in assay [3] (first compound 0.06325 µM), 0.46; in assay [3] (first compound 0.2 µM), 0.486. Moreover, the relative viability in assay [3] (first compound 0.6325 µM) came to 0.311; in assay [3] (first compound 2 µM), 0.22; in assay [4] (first compound 0.08 µM), 0.949; in assay [4] (first compound 0.8 µM) it was 0.846; in assay [4] (first compound 2.53 µM) it was 0.846; in assay [4] (first compound 8 µM), 0.791.
